Results taken from US7709471B2, “Compounds” (AstraZeneca AB, priority 2006, dated 2010).

Test system: human colon tumour cell line HT29
Assay: Cellular Assay (phosphohistone H3 Ser10 mitotic marker, HT29)
Type: cell-based
Conditions: HT-29, 24 h, HT29 cells, read-out: IC50 (cellular assay, phosphohistone H3)

SMILES	IC50 [µM]
CCOc1cc(C(=O)NC2CCN(C)CC2)c(F)cc1Nc1ncc2c(n1)N(C(C)C)CCC(=O)N2C [Example 287, 5-ethoxy-2-fluoro-4-[(6-methyl-5-oxo-2-propan-2-yl-2,6,9,11-tetrazabicyclo[5.4.0]undeca-7,9,11-trien-10-yl)amino]-N-(1-methyl-4-piperidyl)benzamide]	< 30
CCOc1cc(C(=O)NC2CCC(N(C)C)CC2)ccc1Nc1ncc2c(n1)N(C(C)C)CC(C)(C)C(=O)N2C (centres unmarked) [Example 294, N-(4-dimethylaminocyclohexyl)-3-ethoxy-4-[(4,4,6-trimethyl-5-oxo-2-propan-2-yl-2,6,9,11-tetrazabicyclo[5.4.0]undeca-7,9,11-trien-10-yl)amino]benzamide]	< 1
CN(C)CCNC(=O)c1ccc(Nc2ncc3c(n2)N(C2CCCC2)CC2(CC2)C(=O)N3C)c(Cl)c1 [Example 390, 3-chloro-4-(9′-cyclopentyl-5′-methyl-6′-oxo-5′,6′,8′,9′-tetrahydrospiro[cyclopropane-1,7′-pyrimido[5,4-b][1,4]diazepine]-2′-ylamino)-N-(2-dimethylaminoethyl)benzamide]	< 1
COc1cc(C(=O)NC2C[C@H]3CCC[C@@H](C2)N3C)c(F)cc1Nc1ncc2c(n1)N(C1CCCC1)CC1(CC1)C(=O)N2C (stereo partly drawn) [Example 404, 4-(9′-cyclopentyl-5′-methyl-6′-oxo-5′,6′,8′,9′-tetrahydrospiro[cyclopropane-1,7′-pyrimido[5,4-b][1,4]diazepine]-2′-ylamino)-2-fluoro-5-methoxy-N-[(1S,5R)-9-methyl-9-azabicyclo[3.3.1]non-3-yl]benzamide]	< 0.3
CCOc1cc(C(=O)N[C@@H]2CCN(C)C2)ccc1Nc1ncc2c(n1)N(C(C)C)CCC(=O)N2C [Example 284, 3-ethoxy-4-[(6-methyl-5-oxo-2-propan-2-yl-2,6,9,11-tetrazabicyclo[5.4.0]undeca-7,9,11-trien-10-yl)amino]-N-[(3R)-1-methylpyrrolidin-3-yl]benzamide]	< 30
CC(C)N1CC2(CC2)C(=O)N(C)c2cnc(Nc3cc(F)c(C(=O)N[C@@H]4CCN(C)C4)cc3Cl)nc21 [Example 310, (R)-5-chloro-2-fluoro-4-(9′-isopropyl-5′-methyl-6′-oxo-5′,6′,8′,9′-tetrahydrospiro[cyclopropane-1,7′-pyrimido[5,4-b][1,4]diazepine]-2′-ylamino)-N-(1-methylpyrrolidin-3-yl)benzamide]	< 1
CCOc1cc(C(=O)NC2CCN(C)CC2)c(F)cc1Nc1ncc2c(n1)N(C(C)C)CC(C)(C)C(=O)N2C [Example 296, 5-ethoxy-2-fluoro-N-(1-methyl-4-piperidyl)-4-[(4,4,6-trimethyl-5-oxo-2-propan-2-yl-2,6,9,11-tetrazabicyclo[5.4.0]undeca-7,9,11-trien-10-yl)amino]benzamide]	< 30
COc1cc(C(=O)NCCN(C)C)ccc1Nc1ncc2c(n1)N(C1CCCC1)CC(C)(C)C(=O)N2C [Example 359, 4-[(2-cyclopentyl-4,4,6-trimethyl-5-oxo-2,6,9,11-tetrazabicyclo[5.4.0]undeca-7,9,11-trien-10-yl)amino]-N-(2-dimethylaminoethyl)-3-methoxy-benzamide]	< 0.3
CN1CCC(NC(=O)c2cc(Cl)c(Nc3ncc4c(n3)N(C3CCCC3)CCC(=O)N4C)c(Cl)c2F)CC1 [Example 330, 3,5-dichloro-4-[(2-cyclopentyl-6-methyl-5-oxo-2,6,9,11-tetrazabicyclo[5.4.0]undeca-7,9,11-trien-10-yl)amino]-2-fluoro-N-(1-methyl-4-piperidyl)benzamide]	< 1
COc1cc(C(=O)NC2CCNCC2)ccc1Nc1ncc2c(n1)N(C1CCCC1)CC(C)(C)C(=O)N2C [Example 349, 4-[(2-cyclopentyl-4,4,6-trimethyl-5-oxo-2,6,9,11-tetrazabicyclo[5.4.0]undeca-7,9,11-trien-10-yl)amino]-3-methoxy-N-(4-piperidyl)benzamide]	< 0.3

Continued, values first:

IC50 [µM]	SMILES
< 0.3	COc1cc(C(=O)NC2CCN(C)CC2)c(F)cc1Nc1ncc2c(n1)N(C1CCCC1)CC(C)(C)C(=O)N2C [Example 361, 4-[(2-cyclopentyl-4,4,6-trimethyl-5-oxo-2,6,9,11-tetrazabicyclo[5.4.0]undeca-7,9,11-trien-10-yl)amino]-2-fluoro-5-methoxy-N-(1-methyl-4-piperidyl)benzamide]
< 0.3	CCN1CCC(NC(=O)c2cc(OC)c(Nc3ncc4c(n3)N(C3CCCC3)CCC(=O)N4C)cc2Cl)CC1 [Example 337, 2-chloro-4-[(2-cyclopentyl-6-methyl-5-oxo-2,6,9,11-tetrazabicyclo[5.4.0]undeca-7,9,11-trien-10-yl)amino]-N-(1-ethyl-4-piperidyl)-5-methoxy-benzamide]
< 0.3	COc1cc(C(=O)NCCN2CCCC2)ccc1Nc1ncc2c(n1)N(C1CCCC1)CC(C)(C)C(=O)N2C [Example 358, 4-[(2-cyclopentyl-4,4,6-trimethyl-5-oxo-2,6,9,11-tetrazabicyclo[5.4.0]undeca-7,9,11-trien-10-yl)amino]-3-methoxy-N-(2-pyrrolidin-1-ylethyl)benzamide]
< 0.3	COc1cc(C(=O)N[C@@H]2CCN(C)C2)ccc1Nc1ncc2c(n1)N(C1CCCCC1)CCC(=O)N2C [Example 421, 4-[(2-cyclohexyl-6-methyl-5-oxo-2,6,9,11-tetrazabicyclo[5.4.0]undeca-7,9,11-trien-10-yl)amino]-3-methoxy-N-[(3R)-1-methylpyrrolidin-3-yl]benzamide]
< 0.3	CN1C(=O)C(C)(C)CN(C2CCCC2)c2nc(Nc3ccc(C(=O)NCC(C)(C)CN4CCCC4)cc3Cl)ncc21 [Example 367, 3-chloro-4-[(2-cyclopentyl-4,4,6-trimethyl-5-oxo-2,6,9,11-tetrazabicyclo[5.4.0]undeca-7,9,11-trien-10-yl)amino]-N-(2,2-dimethyl-3-pyrrolidin-1-yl-propyl)benzamide]
< 0.3	CCC1(CC)CN(C2CCCC2)c2nc(Nc3ccc(C(=O)NC4CCN(C)CC4)cc3OC)ncc2N(C)C1=O [Example 380, 4-[(2-cyclopentyl-4,4-diethyl-6-methyl-5-oxo-2,6,9,11-tetrazabicyclo[5.4.0]undeca-7,9,11-trien-10-yl)amino]-3-methoxy-N-(1-methyl-4-piperidyl)benzamide]
< 0.3	CCN1CCC(NC(=O)c2ccc(Nc3ncc4c(n3)N(C3CCCC3)CC(C)(C)C(=O)N4C)c(OC)c2)CC1 [Example 350, 4-[(2-cyclopentyl-4,4,6-trimethyl-5-oxo-2,6,9,11-tetrazabicyclo[5.4.0]undeca-7,9,11-trien-10-yl)amino]-N-(1-ethyl-4-piperidyl)-3-methoxy-benzamide]
< 0.3	COc1cc(C(=O)N[C@@H]2CCN(C)C2)c(F)cc1Nc1ncc2c(n1)N(C1CCCCC1)CC1(CC1)C(=O)N2C [Example 438, 4-(9′-cyclohexyl-5′-methyl-6′-oxo-5′,6′,8′,9′-tetrahydrospiro[cyclopropane-1,7′-pyrimido[5,4-b][1,4]diazepine]-2′-ylamino)-2-fluoro-5-methoxy-N-[(3R)-1-methylpyrrolidin-3-yl]benzamide]
< 0.3	CN1CCC(NC(=O)c2cc(F)c(Nc3ncc4c(n3)N(C3CCCC3)CC(C)(C)C(=O)N4C)cc2F)CC1 [Example 356, 4-[(2-cyclopentyl-4,4,6-trimethyl-5-oxo-2,6,9,11-tetrazabicyclo[5.4.0]undeca-7,9,11-trien-10-yl)amino]-2,5-difluoro-N-(1-methyl-4-piperidyl)benzamide]
< 0.3	COc1cc(C(=O)NC2CCC(N3CCCC3)CC2)ccc1Nc1ncc2c(n1)N(C1CCCC1)CC(C)(C)C(=O)N2C (centres unmarked) [Example 360, 4-[(2-cyclopentyl-4,4,6-trimethyl-5-oxo-2,6,9,11-tetrazabicyclo[5.4.0]undeca-7,9,11-trien-10-yl)amino]-3-methoxy-N-(4-pyrrolidin-1-ylcyclohexyl)benzamide]
< 0.3	CCN1CCC(NC(=O)c2ccc(Nc3ncc4c(n3)N(C3CCCCC3)CCC(=O)N4C)c(OC)c2)CC1 [Example 423, 4-[(2-cyclohexyl-6-methyl-5-oxo-2,6,9,11-tetrazabicyclo[5.4.0]undeca-7,9,11-trien-10-yl)amino]-N-(1-ethyl-4-piperidyl)-3-methoxy-benzamide]
< 0.3	CCN1CCC(NC(=O)c2cc(OC)c(Nc3ncc4c(n3)N(C(C)C)CC(CC)(CC)C(=O)N4C)cc2F)CC1 [Example 308, 4-[(4,4-diethyl-6-methyl-5-oxo-2-propan-2-yl-2,6,9,11-tetrazabicyclo[5.4.0]undeca-7,9,11-trien-10-yl)amino]-N-(1-ethyl-4-piperidyl)-2-fluoro-5-methoxy-benzamide]
< 0.3	COc1cc(C(=O)NC2CCC(N(C)C)CC2)ccc1Nc1ncc2c(n1)N(C1CCCC1)CC(C)(C)C(=O)N2C (centres unmarked) [Example 363, 4-[(2-cyclopentyl-4,4,6-trimethyl-5-oxo-2,6,9,11-tetrazabicyclo[5.4.0]undeca-7,9,11-trien-10-yl)amino]-N-(4-dimethylaminocyclohexyl)-3-methoxy-benzamide]
< 0.3	COc1cc(C(=O)NCC(C)(C)CN2CCCC2)ccc1Nc1ncc2c(n1)N(C1CCCC1)CC(C)(C)C(=O)N2C [Example 368, 4-[(2-cyclopentyl-4,4,6-trimethyl-5-oxo-2,6,9,11-tetrazabicyclo[5.4.0]undeca-7,9,11-trien-10-yl)amino]-N-(2,2-dimethyl-3-pyrrolidin-1-yl-propyl)-3-methoxy-benzamide]
< 0.3	COc1cc(C(=O)NC2CCN(CC(C)C)CC2)ccc1Nc1ncc2c(n1)N(C1CCCC1)CCC(=O)N2C [Example 340, 4-[(2-cyclopentyl-6-methyl-5-oxo-2,6,9,11-tetrazabicyclo[5.4.0]undeca-7,9,11-trien-10-yl)amino]-3-methoxy-N-[1-(2-methylpropyl)-4-piperidyl]benzamide]
< 0.3	CN(C)CC(C)(C)CNC(=O)c1ccc(Nc2ncc3c(n2)N(C2CCCC2)CC2(CC2)C(=O)N3C)c(Cl)c1 [Example 392, 3-chloro-4-(9′-cyclopentyl-5′-methyl-6′-oxo-5′,6′,8′,9′-tetrahydrospiro[cyclopropane-1,7′-pyrimido[5,4-b][1,4]diazepine]-2′-ylamino)-N-(3-dimethylamino-2,2-dimethyl-propyl)benzamide]
